The record followed here is patent US20230026163A1, “ANTICANCER COMPOUND AND MEDICAL USE THEREOF” (ASCENTAWITS PHARMACEUTICALS, LTD., priority 2019, published 2023).

A word on the IC50: it is the concentration that inhibits the measured activity by half. Low readings indicate inhibition by little substance, high ones a need for much substance. One may read the Papp A→B as how fast a substance crosses the layer from the apical side. Higher therefore signals ready permeation. Broadly, the Papp B→A is the apparent permeability from the basolateral to the apical side of a cell layer.

In data set [1] the test system is H460 non-small cell lung cancer. Put plainly: Cytotoxicity test of human tumor cell line in vitro (CTG, 72 hours). The following applies: for IC50: Homo sapiens, NCI-H460, H460, 72 hours exposure; for Anticancer activity compared to the compound of control 2: H460. The format is cell-based. Here is the method: IC50 values were obtained by the following methods. The cancer cells were exposed to various concentrations of compounds for 72 hours. Following by washing steps, fresh medium was added to allow the growth of the cancer cells. The cancer cells were stained to obtain cell viability. Then, comparisons were made with the medium-only control.
Specifically, the exponentially growing cells were seeded in 96-well plates at a density of 2×10^3 cells/well, and 100 μL/well. The cells were incubated for 24 hours at 37° C., in 5% CO2, in 95% air, and 100% relative humidity. Next, 99 μL of culture medium was added. The compounds were dissolved in 100% DMSO at 200 times the desired final test concentration. Upon addition of compounds, the compounds were further diluted to 4 times the desired final concentration with a complete medium. Aliquots of 1 μL of compounds at specific concentration were added to the micro-wells containing 199 μL of medium to obtain the final compound concentrations as reported. After the compounds were added, the plates were incubated for an addition 72 hours at 37° C., in 5% CO2, in 95% air, and 100% relative humidity.
The plates to be test containing the cells were equilibrated at room temperature for 30 minutes, and 100 μL of medium per well was discarded. 100 μL of CTG reagent (CelltiterGlo Kit) was added to each well. The plates were placed in a fast-shaker to shake for 2 minutes, and placed at room temperature for 30 minutes in the dark. Chemoluminescence signal values were read with Envision instrument.

The target of a further data set is P-glycoprotein (Homo sapiens, UniProt P08183). Put plainly: in vitro. The conditions noted are these: for Papp A→B at 2 h / Papp B→A at 2 h / recovery at 2 h: dog; for Papp A→B at 2 h / Papp B→A at 2 h: MDCK-MDR1; for P-glycoprotein substrate (experimental conclusion): with vs without Verapamil. The procedure:
MDCKII-MDR1 cells were incubated in cell culture flasks. The incubator was set at 37° C., 5% CO2, and a guaranteed relative humidity of 95%. When the cells reached 70 to 90% confluence, the cells may be seeded to transwells.
50 μL of the cell suspensions were added to the apical chambers of each well of the 96-well transwells at a final seeding density of 5.45×10^5 cells/cm^2.
MDCKII-MDR1 cells may be fully confluent and differentiated after 4 to 8 days of incubation. At this time, the cells may be applied to penetration test. The monolayer membrane resistance was measured with a resistance meter (Millipore), and the resistance per well was recorded. After the test, the transwells were returned to the incubator.
The transwells with MDCKII-MDR1 cells were taken from the incubator. The cell monolayers were rinsed twice with buffer and incubated at 37° C. for 30 minutes.
The rate of the compounds from an apical end to a basolateral end was determined. 75 μL of the buffer containing the test sample was added to each well of the apical chambers (apical end), and 235 μL of the buffer was added to each well of the basolateral chambers (basolateral end).
The rate of the compounds transporting from the basolateral end to the apical end was determined. 75 μL of the buffer was added to the apical chambers (apical end), and 235 μL of the buffer containing the test sample was added to the basolateral chamber (basolateral end).
After the apical chambers and the basolateral chambers were combined respectively, the transwells were incubated at 37° C. for 2 hours.
After incubation, 50 μL of the sample from each well of the apical chambers and the basolateral chambers of the transwells was transferred to new sample tubes respectively. 200 μL of acetonitrile (100 nM of Alprazolam, 200 nM of Labetalol, 200 nM of caffeine, and 2 μM of Ketoprofen) as an internal standard was added to the sample tubes, vortexed for 10 minutes, and centrifuged at 3220 g for 30 minutes. 100 μL of the supernatant was taken and diluted with an equal volume of water for LC-MS/MS analysis. Each sample was incubated in triplicate.
Peak-areas were calculated from ion chromatography results. The apparent permeability coefficient (Papp, unit: cm/s×10-6) of the compounds was calculated by the following formula.
In the formula, VA was the volume of the solution at the acceptor end (Ap→B1 was 0.235 mL, and B1→Ap was 0.075 mL), Area was the membrane area (0.143 cm^2) of 96-well transwell, time was the incubation time (unit: s), [drug]acceptor referred to the drug concentration of the acceptor end after incubation, and [drug]initial,donor referred to the initial concentration of the donor end before incubation.
Efflux ratio was calculated with the following formula.
In the formula, Papp(B_A) was the apparent permeability coefficient from the basolateral end to the apical end, and Papp(A-B) was the apparent permeability coefficient from the apical end to the basolateral end.
The recovery rate was calculated with the following formula.
In the formula, VA was the solution volume of the acceptor end (unit: mL), VD was the solution volume of the donor end (unit: mL), [drug]acceptor referred to the drug concentration of the acceptor end after incubation, and [drug]initial,donor referred to the initial concentration of the donor end before incubation.

[2] abbreviates: MDCK-MDR1, Recovery (%) AP-BL, Verapamil 0 μM.
[3] abbreviates: MDCK-MDR1, Recovery (%) AP-BL, Verapamil 100 μM.
Where [4] appears, read: MDCK-MDR1, Recovery (%) BL-AP, Verapamil 0 μM.
Setting [5] is: MDCK-MDR1, Recovery (%) BL-AP, Verapamil 100 μM.

P-glycoprotein, sequence (P08183 whole entry): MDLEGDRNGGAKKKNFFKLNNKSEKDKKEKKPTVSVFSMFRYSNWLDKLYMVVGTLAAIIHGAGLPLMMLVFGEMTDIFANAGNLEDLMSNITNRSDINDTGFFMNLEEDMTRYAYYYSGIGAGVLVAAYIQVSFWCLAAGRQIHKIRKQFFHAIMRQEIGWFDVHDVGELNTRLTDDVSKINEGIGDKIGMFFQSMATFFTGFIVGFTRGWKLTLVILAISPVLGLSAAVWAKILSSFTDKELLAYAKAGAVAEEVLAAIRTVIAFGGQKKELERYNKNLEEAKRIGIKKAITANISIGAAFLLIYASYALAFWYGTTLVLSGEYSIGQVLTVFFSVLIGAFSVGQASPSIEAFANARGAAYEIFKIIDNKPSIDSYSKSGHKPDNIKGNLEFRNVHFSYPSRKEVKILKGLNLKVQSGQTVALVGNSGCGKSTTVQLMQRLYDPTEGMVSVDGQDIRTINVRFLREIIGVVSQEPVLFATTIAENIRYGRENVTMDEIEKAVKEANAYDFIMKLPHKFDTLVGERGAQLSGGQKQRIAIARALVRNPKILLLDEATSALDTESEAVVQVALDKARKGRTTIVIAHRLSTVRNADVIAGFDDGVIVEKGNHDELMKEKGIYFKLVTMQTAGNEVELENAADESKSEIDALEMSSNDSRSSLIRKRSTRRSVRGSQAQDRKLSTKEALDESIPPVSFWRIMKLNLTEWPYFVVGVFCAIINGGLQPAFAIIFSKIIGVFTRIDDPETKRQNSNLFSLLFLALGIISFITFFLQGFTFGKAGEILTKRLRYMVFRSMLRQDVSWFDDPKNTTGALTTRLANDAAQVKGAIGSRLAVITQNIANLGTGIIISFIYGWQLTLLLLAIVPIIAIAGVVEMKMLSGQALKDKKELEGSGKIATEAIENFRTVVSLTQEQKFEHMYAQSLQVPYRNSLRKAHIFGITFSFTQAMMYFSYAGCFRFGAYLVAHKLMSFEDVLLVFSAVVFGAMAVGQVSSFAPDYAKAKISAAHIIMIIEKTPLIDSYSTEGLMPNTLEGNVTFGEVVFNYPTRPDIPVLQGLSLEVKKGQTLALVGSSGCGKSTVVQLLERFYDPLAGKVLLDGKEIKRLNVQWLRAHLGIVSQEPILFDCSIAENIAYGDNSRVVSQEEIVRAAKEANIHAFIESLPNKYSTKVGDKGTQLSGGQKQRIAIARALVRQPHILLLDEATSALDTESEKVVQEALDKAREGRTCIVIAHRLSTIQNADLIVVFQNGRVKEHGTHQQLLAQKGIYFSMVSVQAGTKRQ

`O=[N+]([O-])c1ccc(COP(=O)(N2CC2)N2CC2)c2ccccc12` [Compound 02] had a half-maximal inhibitory concentration (IC50) in data set [1] of 755 nM.
As for `CC(OP(=O)(N1CC1)N1CC1)c1ccc2ccccc2c1[N+](=O)[O-]` (stereo not drawn) [Compound 04], in data set [1], the “Anticancer activity compared to the compound of control 2” value is listed as “obviously worse” and the half-maximal inhibitory concentration (IC50) was 9280 nM.
Take `O=[N+]([O-])c1c(C(OP(=O)(N2CC2)N2CC2)C(F)(F)F)ccc2ccccc12` (stereo not drawn) [Compound 05]: in data set [1], the “Anticancer activity compared to the compound of control 2” value is given as “obviously worse” and 9020 nM corresponded to half-maximal inhibition (IC50).
For the molecule `O=[N+]([O-])c1cccc2ccc(COP(=O)(N3CC3)N3CC3)cc12` [Compound 06], in data set [1], the concentration for half-maximal inhibition (IC50) is 172 nM.
Consider `CC(OP(=O)(N1CC1)N1CC1)c1ccc2cccc([N+](=O)[O-])c2c1` (stereo not drawn) [Compound 07], for which the 50% inhibitory concentration (IC50) in data set [1] came to 168 nM.
In the case of `O=[N+]([O-])c1cccc2ccc(C(OP(=O)(N3CC3)N3CC3)C(F)(F)F)cc12` (stereo not drawn) [Compound 08], the IC50 in data set [1] amounted to 3840 nM.
Same read-out and setting: then `O=[N+]([O-])c1cccc2c(COP(=O)(N3CC3)N3CC3)cccc12` [Compound 09], with 1650 nM.
Still for that read-out and setting: as for `CC(OP(=O)(N1CC1)N1CC1)c1cccc2c([N+](=O)[O-])cccc12` (stereo not drawn) [Compound 10], the figure is 692 nM.
In data set [1], `O=[N+]([O-])c1cccc2c(C(OP(=O)(N3CC3)N3CC3)C(F)(F)F)cccc12` (stereo not drawn) [Compound 11] returned a half-inhibitory concentration (IC50) of 7650 nM.
On to `CC(OP(=O)(N1CC1)N1CC1)c1ccc([N+](=O)[O-])c2cccnc12` (stereo not drawn) [Compound 12], for which the midpoint of inhibition in data set [1], the IC50, lay at 35.2 nM.
Same read-out and setting: then `CC(OP(=O)(N1CC1)N1CC1)c1ccc([N+](=O)[O-])c2ccncc12` (stereo not drawn) [Compound 13], with 12.9 nM.
`CC(OP(=O)(N1CC1)N1CC1)c1ccc([N+](=O)[O-])c2cnccc12` (stereo not drawn) [Compound 14]: the midpoint of inhibition in data set [1], the IC50, lay at 3.82 nM. For the same molecule, on P-glycoprotein, the Papp A→B at 2 h was 12.9 ×10⁻⁶ cm/s. The same molecule showed a basolateral-to-apical permeability (Papp B→A) at 2 h at P-glycoprotein of 26.3 ×10⁻⁶ cm/s. Also, the recovery at 2 h worked out at 91.1% on P-glycoprotein (setting [2]), 80.8% at P-glycoprotein (setting [3]), 104% at P-glycoprotein (setting [4]) and 90.8% at P-glycoprotein (setting [5]). The “P-glycoprotein substrate (experimental conclusion)” value at P-glycoprotein is recorded as “not P-glycoprotein substrates”.
For the molecule `CC(OP(=O)(N1CC1)N1CC1)c1ccc([N+](=O)[O-])c2ncccc12` (stereo not drawn) [Compound 15], the IC50 in data set [1] stood at 145 nM.
Same read-out and setting: then `O=[N+]([O-])c1ccc(C(OP(=O)(N2CC2)N2CC2)C(F)(F)F)c2ncccc12` (stereo not drawn) [Compound 16], with 34.9 nM; and `O=[N+]([O-])c1ccc(C(OP(=O)(N2CC2)N2CC2)C(F)(F)F)c2ccncc12` (stereo not drawn) [Compound 18], with 7.88 nM; and `O=[N+]([O-])c1ccc(C(OP(=O)(N2CC2)N2CC2)C(F)(F)F)c2cccnc12` (stereo not drawn) [Compound 19], with 311 nM.
Turning to `O=[N+]([O-])c1ccc(COP(=O)(N2CC2)N2CC2)c2ncccc12` [Compound 20], in data set [1], the half-inhibitory concentration (IC50) came out at 41.5 nM. Also, at P-glycoprotein, the Papp A→B at 2 h was determined as 33.7 ×10⁻⁶ cm/s. The molecule further yielded a Papp B→A at 2 h on P-glycoprotein of 21.8 ×10⁻⁶ cm/s. Besides, the recovery at 2 h came to 92.7% at P-glycoprotein (setting [2]), 87.6% on P-glycoprotein (setting [3]), 96.3% on P-glycoprotein (setting [4]) and 96.2% at P-glycoprotein (setting [5]). Further, the “P-glycoprotein substrate (experimental conclusion)” value on P-glycoprotein was “not P-glycoprotein substrates”.
In the case of `O=[N+]([O-])c1ccc(COP(=O)(N2CC2)N2CC2)c2ccncc12` [Compound 21], the 50% inhibitory concentration (IC50) in data set [1] is 7.17 nM.
Still for that read-out and setting: then `O=[N+]([O-])c1ccc(COP(=O)(N2CC2)N2CC2)c2cccnc12` [Compound 22], with 200 nM.
The molecule `O=[N+]([O-])c1cccc2cc(COP(=O)(N3CC3)N3CC3)ccc12` [Compound 24] gave an IC50 in data set [1] of 478 nM.
In data set [1], `O=[N+]([O-])c1cc(COP(=O)(N2CC2)N2CC2)cc2ccccc12` [Compound 25] came in with a half-inhibitory concentration (IC50) of 106 nM.
Turning to `COCCc1ccc(OCC(O)CNC(C)C)cc1` (stereo not drawn) [Metoprolol, reference compound], on P-glycoprotein, the Papp A→B at 2 h was determined as 26 ×10⁻⁶ cm/s and the basolateral-to-apical permeability (Papp B→A) at 2 h came out at 18.9 ×10⁻⁶ cm/s.
